Test results: patent USRE40086E1, “Method for treating bacterial infection with novel 7-substituted-9-substituted amino 6-demethyl-6-deoxytetracyclines” (Wyeth Holdings Corporation, priority 1991, dated 2008)
Counter-ions that a name gives are not always drawn. Like-named read-outs stand apart in the source and are kept apart here.

Legend:
[1] = test system: Enterococcus faecalis; assay: MIC vs recent clinical and agricultural isolates (Table V, KK); type: cell-based; settings: [10] tested
[2] = test system: Bacteroides fragilis; assay: as above; type: cell-based; settings: [11] tested
[3] = test system: Enterobacter aerogenes; assay: as above; type: cell-based; settings: [10] tested
[4] = test system: S. aureus UBMS 88-7 (tetK); assay: MIC, agar dilution; type: cell-based; settings: Staphylococcus aureus
[5] = test system: E. coli UBMS 89-1 (tetM); assay: MIC, agar dilution; type: cell-based; settings: Escherichia coli
[6] = test system: Listeria monocytogenes; assay: MIC vs recent clinical and agricultural isolates (Table V, KK); type: cell-based; settings: [8] tested
[7] = test system: Citrobacter freundii; assay: as above; type: cell-based; settings: [10] tested
[8] = test system: E. faecalis ATCC 29212; assay: MIC, agar dilution; type: cell-based; settings: Enterococcus faecalis, ATCC29212; E. faecalis ATCC 29212; read-out: MIC
[9] = test system: Enterococcus spp. Vancomycin-resistant; assay: MIC vs recent clinical and agricultural isolates (Table V, KK); type: cell-based; settings: [8] tested
[10] = test system: Bacertoides fragilis group; assay: as above; type: cell-based; settings: [10] tested
[11] = test system: Xanthomonas maltophilia; assay: as above; type: cell-based; settings: [10] tested
[12] = test system: Streptococcus pneumoniae; assay: as above; type: cell-based; settings: [10] tested
[13] = test system: Serratia mercescens; assay: as above; type: cell-based; settings: [10] tested
[14] = test system: Shigella spp.; type: cell-based; settings: [14] tested
[15] = test system: Neisseria gonorrhoeae; assay: MIC vs recent clinical and agricultural isolates (Table V, KK); type: cell-based; settings: [14] tested
[16] = test system: Pseudomonas aeruginosa; assay: as above; type: cell-based; settings: [10] tested
[17] = test system: S. aureus UBMS 90-3 (Sensitive); assay: MIC, agar dilution; type: cell-based; settings: Staphylococcus aureus, S. aureus UBMS 90-3 (Sensitive); read-out: MIC
[18] = test system: S. aureus UBMS 88-5 (tetM); assay: MIC, agar dilution; type: cell-based; settings: S. aureus UBMS 88-5 (tetM)
[19] = test system: Streptococcus agalactiae; assay: MIC vs recent clinical and agricultural isolates (Table V, KK); type: cell-based; settings: [10] tested
[20] = test system: S. aureus UBMS 88-4 (Sensitive); assay: MIC, agar dilution; type: cell-based; settings: Staphylococcus aureus, S. aureus UBMS 88-4 (Sensitive); read-out: MIC
[21] = test system: S. aureus ATCC 29213 (Sensitive); assay: MIC, agar dilution; type: cell-based; settings: Staphylococcus aureus, ATCC29213; S. aureus ATCC 29213 (Sensitive); read-out: MIC
[22] = test system: Escherichia coli (Agricultural); assay: MIC vs recent clinical and agricultural isolates (Table V, KK); type: cell-based; settings: [15] tested
[23] = test system: Clostridium difficile; assay: as above; type: cell-based; settings: [12] tested
[24] = test system: Klebsiella oxytoca; assay: as above; type: cell-based; settings: [10] tested
[25] = test system: E. coli UBMS 90-4 (tetM); assay: MIC, agar dilution; type: cell-based; settings: Escherichia coli
[26] = test system: Bacteroides spp.; assay: MIC vs recent clinical and agricultural isolates (Table V, KK); type: cell-based; settings: [9] tested
[27] = test system: Proteus mirabilis; assay: as above; type: cell-based; settings: [26] tested
[28] = test system: Moraxella catarrhalis; assay: as above; type: cell-based; settings: [18] tested
[29] = test system: Anaerobic Gram (+) Cocci; assay: as above; type: cell-based; settings: [15] tested
[30] = test system: E. coli ATCC 25922; assay: MIC, agar dilution; type: cell-based
[31] = test system: S. aureus UBMS 90-2 (tetM); assay: MIC, agar dilution; type: cell-based; settings: S. aureus UBMS 90-2 (tetM)
[32] = test system: Escherichia coli (Clinical); assay: MIC vs recent clinical and agricultural isolates (Table V, KK); type: cell-based; settings: [30] tested
[33] = test system: Staphylococcus aureus, methicillin-resistant; assay: as above; type: cell-based; settings: [15] tested
[34] = test system: E. coli UBMS 88-1 (tetB); assay: MIC, agar dilution; type: cell-based; settings: E. coli UBMS 88-1 (tetB)
[35] = test system: Kiebsiella pneumoniae; assay: MIC vs recent clinical and agricultural isolates (Table V, KK); type: cell-based; settings: [10] tested
[36] = test system: Morganella morganii; assay: as above; type: cell-based; settings: [16] tested
[37] = test system: Pasturella multocida (Agricultural & Clinical); assay: as above; type: cell-based; settings: [17] tested
[38] = test system: E. faecalis 12201; assay: MIC, agar dilution; type: cell-based
[39] = test system: S. aureus UBMS 90-1 (tetM); assay: MIC, agar dilution; type: cell-based; settings: S. aureus UBMS 90-1 (tetM)
[40] = test system: Citrobacter diversus; assay: MIC vs recent clinical and agricultural isolates (Table V, KK); type: cell-based; settings: [10] tested
[41] = test system: Escherichia coli UBMS 90-4 (Tet-M); assay: In vivo antibacterial evaluation, acute lethal infection in mice; settings: Escherichia coli, in Mus musculus, iv
[42] = test system: Bordetella bronchiseptica (Agricultural); assay: MIC vs recent clinical and agricultural isolates (Table V, KK); type: cell-based; settings: [10] tested
[43] = test system: Proteus vulgaris; assay: as above; type: cell-based; settings: [18] tested
[44] = test system: S. haemolyticus AVAH 88-3; assay: MIC, agar dilution; type: cell-based
[45] = test system: Staphylococcus aureus, methicillin-susceptible; assay: MIC vs recent clinical and agricultural isolates (Table V, KK); type: cell-based; settings: [15] tested

Structure (SMILES): CN(C)c1ccc(O)c2c1C[C@H]1C[C@H]3[C@H](N(C)C)C(O)=C(C(N)=O)C(=O)[C@@]3(O)C(O)=C1C2=O [Compound O, 7-(Dimethylamino)-6-demethyl-6-deoxytetracycline hydrochloride (minocycline hydrochloride), reference compound]
- MIC (range over isolates) [1]: 0.03 to 16 µg/mL
- MIC (range over isolates) [2]: <8 to 16000 ng/mL
- MIC (range over isolates) [3]: 0.5 to 1 µg/mL
- MIC [4]: 0.06 µg/mL
- MIC [5]: 16 µg/mL
- MIC (range over isolates) [6]: 0.015 to 0.03 µg/mL
- MIC (range over isolates) [7]: 0.03 to 32 µg/mL
- MIC [8]: 0.5 µg/mL
- MIC (range over isolates) [9]: 0.03 to 16 µg/mL
- MIC (range over isolates) [10]: <8 to 4000 ng/mL
- MIC (range over isolates) [11]: 0.12 to 1 µg/mL
- MIC (range over isolates) [12]: 0.06 to 0.5 µg/mL
- MIC (range over isolates) [13]: 1 to 8 µg/mL
- MIC (range over isolates) [14]: 0.25 to 8 µg/mL
- MIC (range over isolates) [15]: 0.5 to 64 µg/mL
- MIC (range over isolates) [16]: 1 to 16 µg/mL
- MIC [17]: ≤ 0.015 µg/mL
- MIC ([18]; hydrochloride): 4 µg/mL
- MIC ([18]; Staphylococcus aureus): 2 µg/mL
- MIC (range over isolates) [19]: 0.12 to 16 µg/mL
- MIC [20]: ≤ 0.015 µg/mL
- MIC [21]: ≤ 0.015 µg/mL
- MIC (range over isolates) [22]: 1 to 16 µg/mL
- MIC (range over isolates) [23]: 0.015 to 16 µg/mL
- MIC (range over isolates) [24]: 0.5 to 4 µg/mL
- MIC [25]: 64 µg/mL
- MIC (range over isolates) [26]: 0.03 to 16 µg/mL
- MIC (range over isolates) [27]: 1 to 32 µg/mL
- MIC (range over isolates) [28]: 0.03 to 0.12 µg/mL
- MIC (range over isolates) [29]: 0.05 to 8 µg/mL
- MIC ([30]; E. coli ATCC 25922, hydrochloride): 0.5 µg/mL
- MIC ([30]; Escherichia coli, ATCC25922, E. coli ATCC 25922, read-out: MIC): 0.25 µg/mL
- MIC ([31]; hydrochloride): 1 µg/mL
- MIC ([31]; Staphylococcus aureus): 2 µg/mL
- MIC (range over isolates) [32]: 0.25 to 32 µg/mL
- MIC (range over isolates) [33]: 0.06 to 4 µg/mL
- MIC ([34]; hydrochloride): 16 µg/mL
- MIC ([34]; Escherichia coli): 8 µg/mL
- MIC (range over isolates) [35]: 0.5 to 8 µg/mL
- MIC (range over isolates) [36]: 0.25 to 32 µg/mL
- MIC (range over isolates) [37]: 0.015 to 4 µg/mL
- MIC ([38]; E. faecalis 12201, hydrochloride): 8 µg/mL
- MIC ([38]; Enterococcus faecalis, 12201, E. faecalis 12201, read-out: MIC): 4 µg/mL
- MIC ([39]; hydrochloride): 2 µg/mL
- MIC ([39]; Staphylococcus aureus): 4 µg/mL
- MIC (range over isolates) [40]: 0.25 to 4 µg/mL
- ED50 [41]: > 32 mg/kg
- MIC (range over isolates) [42]: 0.06 to 0.12 µg/mL
- MIC (range over isolates) [43]: 0.5 to 16 µg/mL
- MIC ([44]; S. haemolyticus AVAH 88-3, hydrochloride): 0.06 µg/mL
- MIC ([44]; Staphylococcus haemolyticus, AVAH883, S. haemolyticus AVAH 88-3, read-out: MIC): 0.03 µg/mL
- MIC (range over isolates) [45]: 0.03 to 0.12 µg/mL
